From patent US12319684B2 (Sanford Burnham Prebys Medical Discovery Institute, priority 2014, dated 2025)
Like-named read-outs stand apart in the source and are kept apart here.

What was measured:
vasopressin release = conditions: intracerebral injection; cited from earlier work
[1] = tested on: abdominal aortic aneurysms; conditions: mouse model of abdominal aortic aneurysms; cited from earlier work
[2] = target: T1, human apelin receptor (APJ, AGTRL-1, APLNR) (Homo sapiens, UniProt P35414); assay: APJ cAMP cell-based assay (forskolin-stimulated CHO cells, enzyme fragment complementation); conditions: for Emax: CHO, 0.5 h, read-out: APJ cAMP % resp (efficacy)
T1 construct: host or cells: Chinese hamster ovary cells
T1 sequence (P35414 1-380): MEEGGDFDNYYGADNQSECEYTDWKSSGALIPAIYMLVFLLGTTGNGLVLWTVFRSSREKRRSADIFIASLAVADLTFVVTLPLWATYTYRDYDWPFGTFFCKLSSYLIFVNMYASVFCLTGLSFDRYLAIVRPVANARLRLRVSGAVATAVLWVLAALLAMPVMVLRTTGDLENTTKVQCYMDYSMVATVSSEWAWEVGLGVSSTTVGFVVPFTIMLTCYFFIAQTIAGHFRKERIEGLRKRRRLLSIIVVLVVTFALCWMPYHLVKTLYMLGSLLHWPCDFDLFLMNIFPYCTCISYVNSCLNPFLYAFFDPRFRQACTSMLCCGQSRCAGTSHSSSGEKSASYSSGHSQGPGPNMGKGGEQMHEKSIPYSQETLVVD

[3] = CHO cells expressing human APJ, forskolin-stimulated, 0.5 h incubation, 50% of control (apelin-13, 1 nM) response, read-out: APJ cAMP EC50
[4] = percentage of the maximal apelin-13 response at 1 nM (control)

Compound	EC50 [2, 3] [µM]	Emax [2, 4] [%]	other results
apelin	–	–	reduction in plasma vasopressin concentrations (vasopressin release): 40%; reduction of aneurysm [1]: 50%
COc1ccccc1-n1c(SCc2csc(-c3ccc(Cl)cc3)n2)nnc1-c1cccs1 [Example 35, 3-[2-(4-Chloro-phenyl)-thiazol-4-ylmethylsulfanyl]-4-(2-methoxy-phenyl)-5-thiophen-2-yl-4H-[1,2,4]triazole]	> 10	90	–
COc1ccccc1-n1c(SCc2csc(-c3ccccc3)n2)nnc1-c1cccs1 [Example 31, 4-(2-Methoxy-phenyl)-3-(2-phenyl-thiazol-4-ylmethylsulfanyl)-5-thiophen-2-yl-4H-[1,2,4]triazole]	0.635	–	Emax [2]: 133%
COc1ccccc1-n1c(SCc2cc(=O)n3cc(C)ccc3n2)nnc1-c1sccc1C [Example 12, 2-[4-(2-Methoxy-phenyl)-5-(3-methyl-thiophen-2-yl)-4H-[1,2,4]triazol-3-ylsulfanylmethyl]-7-methyl-pyrido[1,2-a]pyrimidin-4-one]	1.49	89	–
COc1ccccc1-n1c(SCc2cc(=O)n3c(C)cccc3n2)nnc1-c1cccs1 [Example 44, 2-[4-(2-Methoxy-phenyl)-5-thiophen-2-yl-4H-[1,2,4]triazol-3-ylsulfanylmethyl]-6-methyl-pyrido[1,2-a]pyrimidin-4-one]	–	–	EC50 [2]: 0.0098 µM; Emax [2]: 119%
COc1ccccc1-n1c(SCc2nc(=O)c3ccc(C(F)(F)F)cc3[nH]2)nnc1-c1cccs1 [Example 60, 2-[4-(2-Methoxy-phenyl)-5-thiophen-2-yl-4H-[1,2,4]triazol-3-ylsulfanylmethyl]-7-trifluoromethyl-1H-quinazolin-4-one]	0.569	160	–
COc1ccccc1-n1c(SCc2cc(=O)n3cc(C)ccc3n2)nnc1-c1ccccc1 [Example 3, 2-[4-(2-Methoxy-phenyl)-5-phenyl-4H-[1,2,4]triazol-3-ylsulfanylmethyl]-7-methyl-pyrido[1,2-a]pyrimidin-4-one]	6.16	136	–
COc1ccccc1-n1c(SCc2cc(=O)n3cc(C)ccc3n2)nnc1-c1ccc(C)cc1 [Example 5, 2-[4-(2-Methoxy-phenyl)-5-p-tolyl-4H-[1,2,4]triazol-3-ylsulfanylmethyl]-7-methyl-pyrido[1,2-a]pyrimidin-4-one]	1.51	126	–

The remaining compounds from weak to strong by EC50 [2, 3], led by results:

EC50 [2, 3] [µM]	Emax [2, 4] [%]	Compound	other results
0.455	136	COc1ccccc1-n1c(SCc2cc(=O)n3cc(C)ccc3n2)nnc1-c1ccc(Cl)s1 [Example 9, 2-[5-(5-Chloro-thiophen-2-yl)-4-(2-methoxy-phenyl)-4H-[1,2,4]triazol-3-ylsulfanylmethyl]-7-methyl-pyrido[1,2-a]pyrimidin-4-one]	–
0.238	101	COc1ccccc1-n1c(OCc2coc(-c3ccccc3)n2)nnc1-c1cccs1 [Example 81, 4-(2-Methoxy-phenyl)-3-(2-phenyl-oxazol-4-ylmethoxy)-5-thiophen-2-yl-4H-[1,2,4]triazole]	–
0.179	109	Cc1ccc2nc(CSc3nnc(-c4cccs4)n3-c3ccccc3C)cc(=O)n2c1 [Example 23, 7-Methyl-2-(5-thiophen-2-yl-4-o-tolyl-4H-[1,2,4]triazol-3-ylsulfanylmethyl)-pyrido[1,2-a]pyrimidin-4-one]	–
0.0968	84	COc1ccccc1-n1c(SCc2cc(=O)n3cc(C)ccc3n2)nnc1-c1ccoc1 [Example 16, 2-[5-Furan-3-yl-4-(2-methoxy-phenyl)-4H-[1,2,4]triazol-3-ylsulfanylmethyl]-7-methyl-pyrido[1,2-a]pyrimidin-4-one]	–
0.0704	118	COc1ccccc1-n1c(SCc2cc(=O)n3cc(C)ccc3n2)nnc1-c1ccc(C)s1 [Example 11, 2-[4-(2-Methoxy-phenyl)-5-(5-methyl-thiophen-2-yl)-4H-[1,2,4]triazol-3-ylsulfanylmethyl]-7-methyl-pyrido[1,2-a]pyrimidin-4-one]	–
0.0315	80	COc1ccccc1-n1c(SCc2nc(=O)c3cc(Br)ccc3[nH]2)nnc1-c1cccs1 [Example 61, 6-Bromo-2-[4-(2-methoxy-phenyl)-5-thiophen-2-yl-4H-[1,2,4]triazol-3-ylsulfanylmethyl]-1H-quinazolin-4-one]	–
